Converted amounts (≈) assume the structure as drawn. Read-outs that look alike come from different tables or passages of the source.
Experiments:
[1] = distribution coefficient Log P of drug substance; type: physicochemical
Protocol: AFQ056 is a chiral molecule with 3 asymmetric carbon atoms and has a melting point of about 115° C. One single polymorph has been identified.

[2] = solubility of AFQ056 at 37° C. in different aqueous media (FIG. 2); type: physicochemical; conditions: pure aqueous solution with raising ethanol levels
Protocol: FIG. 2 graphically depicts the solubility of AFQ056 at 37° C. in different aqueous media. […] Up to the amount of about 20% of ethanol in the solutions, the LDAO (Lauryldimethylamine N-oxide) in water solution and the water-ethanol solution show a different solubility pattern of AFQ056. In the presence of about 40% ethanol in the solutions, both the LDAO in water solution and the water-ethanol solution show a similar solubility for AFQ056.
The solubility pattern of AFQ056 was examined ([…]). […] In pure aqueous solutions the solubility of AFQ056 steadily increases with raising ethanol concentrations. The solubility pattern of AFQ056 in a LDAO water-ethanol solution is distinct from the solubility pattern of AFQ056 in a pure aqueous solution only up to an amount of 20% ethanol present in the solution. […] Immediate release forms of AFQ056 have therefore the inherent risk of dose dumping and can create severe consequences for the patient if ethanol-containing beverages are consumed in parallel. Particle size distribution is also an important factor influencing the dissolution of a drug substance and is known to influence the drug release from matrix tablets.

[3] = half life of AFQ056 used to set the wash out period; conditions: human, in vivo, oral; 50 mg and 100 mg doses
From the text: The study has a 3-Latin, 5-sequences×5-period open-label design that is suitable for comparing the pharmacokinetics including relative bioavailability of three modified release formulations of AFQ056. The immediate release capsule formulation (size O, IR) is used as a reference to enable comparisons with data obtained in previously completed trials. This study design allows the comparison of pharmacokinetic profile of AFQ056 from three modified release (MR) formulations relative to the IR formulation under fasted conditions, and to assess the food effect on the pharmacokinetics of the three MR forms. Latin-square design is selected as it offers maximum precision of comparison across different treatments with minimum number of study subjects. The cross-over design permits investigation of all five treatment conditions within each subject and is used to account for interindividual variability. […] Sampling for 72 hours post dose is considered sufficient for characterizing the PK profiles of all formulations, including the MR forms.

[4] = test system: L-dopa induced dyskinesias; assay: earlier studies of IR AFQ056 in Parkinson's disease patients; type: in vivo, human; conditions: IR formulation
From the text: AFQ056 has previously been formulated as a hard gelatin capsule and as a powder for oral suspension, both with immediate release (IR) properties. […] The IR formulation used in these studies required twice-daily dosing.

[5] = solubility in water and in ethanol at room temperature; type: physicochemical; conditions: for solubility: room temperature
From the text: Particle size distribution is also an important factor influencing the dissolution of a drug substance and is known to influence the drug release from matrix tablets.

[6] = Roberts et al., cited from earlier work

Row | logP [1] | solubility with raising ethanol levels [2] | half-life [3] [h] | solubility ([5]; organic solvent or mixture, ethanol, read-out: Solubility in ethanol) [µg/mL] | solubility in organic solvents (in words) ([5]; organic solvents such as ethanol) | solubility in water (in words) ([5]; water) | solubility ([5]; water, read-out: Solubility in water) [µg/mL] | Structure (SMILES) | effect on L-dopa induced dyskinesias ([4]; Parkinson's disease patients) | effect on underlying Parkinsonian motor symptoms ([4]; Parkinson's disease patients) | most frequent adverse events ([4]; patients) | Solubility in ethanol ([6]; ethanol) | Solubility in water ([6]; water) [µg/mL]
1 | 4.7 | steadily increasing solubility | 7 to 17 | ~53000 (≈ 169 mM) | soluble | hardly soluble | ~20 (≈ 0.0638 mM) | COC(=O)N1CC[C@@H]2[C@H]1CCC[C@@]2(O)C#Cc1cccc(C)c1 [AFQ056, (−)-(3aR,4S,7aR)-Octahydro-4-hydroxy-4-[(3-methylphenyl)ethynyl]-1H-indole-1-carboxylic acid methyl ester] | reduction in L-dopa induced dyskinesias | without inducing any clinically or statistically significant worsening | dizziness, dyskinesia, nausea, fatigue, and hallucinations |  | 
2 |  |  |  |  |  |  |  | CC(=O)Oc1ccccc1C(=O)O [Aspirin] |  |  |  | about 237 mg/ml | 8400 (≈ 46.6 mM)

From patent US12653807B2, “Modified release formulation for (-)-(3AR,4S,7AR)-4-hydroxy-4-m-tolylethynyl-octahydro-indole-1-carboxylic acid methyl ester” (NOVARTIS AG, priority 2013, dated 2026)
